In data set [1] the test system is human umbilical vein endothelial cell (HUVEC). Briefly: in vitro HUVEC migration assay (time-lapse imaging of scraped confluent cultures). The format is cell-based. How it is done:
To examine if the compounds of the invention affect endothelial cell function, an in vitro human umbilical vein endothelial cell (HUVEC) migration assay was performed in the presence of Compound 226. HUVEC cells (ATCC, VA) (passage number 4) were cultured in EGM2 medium (Cambrex, Mass.) on 12-well plates and performed time-lapse imaging with the live cell imaging system on an inverted microscope supplied with 6-7% CO2. The temperature was kept at 37° C. Images were taken every 30 minutes using the 2× objective for up to 106 hr (results in FIGS. 1, 2 and 3), or, every 60 seconds using the 20× objective for 30 min (for FIG. 4). Confluent HUVEC cultures were scraped similarly to make a blank area, followed by culturing in HUVEC medium for 15 hr without treatment. The migration areas, which were imaged as time-lapse sequences for each well, were used as a basis to standardize/correct migration rates. Then, migration of cells under different treatments was imaged at the same time to generate time-lapse image sequences for each well. Time-lapse movies were further analyzed by measuring areas that were covered by migrating cells. […] The red lines indicate the front lines of migrating cells. DMSO (1:100) treated cells migrated rapidly and covered the entire blank (wounded) area at 106 hr. […] During experiments, HUVEC cells were activated by the presence of VEGF (Cambrex, Mass.) and basic FGF (Cambrex, Mass.).
In addition to the analysis of HUVEC cell migration, HUVEC behavior was also tracked during above treatments.

The next data set concerns HUVEC. The data set is described as follows: HUVEC killing (separate reference experiment). Type of data set: cell-based. The following applies: Homo sapiens.
Data set [2] has as its system VE-cadherin junctions between HUVEC cells. Briefly: immunofluorescence study of VE-cadherin junctions between HUVEC cells. Type of data set: cell-based, human. The note with it: 24 hrs. How it is done:
An immunofluorescence study was performed by using anti-VE-cadherin antibodies (1:1 mixed, obtained from Amersham Biosciences, NJ, and Santa Cruz Biotechnology, CA) to examine VE-cadherin junctions between HUVEC cells. HUVEC cells were treated with DMSO or Compound 226 (10, 100 and 1000 nM) for 24 hrs and fixed for immunostaining. DMSO concentration was 1:100 for all treatments. To boost the immunofluorescence signal, cells were stained with a mixture of 2 polyclonal anti-human VE-cadherin Abs followed by staining with a mixture of fluorescent secondary antibodies. […] Non-DMSO treated cells gave a similar result to those with DMSO treatment (data not shown). […] This effect could result in limited motility of the cells and reducing permeability of the endothelium, thus contributing to the cell migration inhibition and the potential anti-angiogenesis effect of Compound 226.

pIC50: −log10 of the molar value.

Regarding `CC(C)c1cc(-c2nnc(O)n2-c2ccc3c(ccn3C)c2)c(O)cc1O` [Compound 226, 3-(2,4-dihydroxy-5-isopropyl-phenyl)-4-(1-methyl-indol-5-yl)-5-hydroxy-[1,2,4] triazole], in data set [1] (100 nM and 1 μM, up to 106 hr, compared to DMSO, cells activated by VEGF and basic FGF), the “migration of HUVEC cells to the blank area” value was “completely blocked migration”. The “HUVEC cell-cell contact lines (morphology)” value in data set [1] (100 nM, 2× and 20× magnification (FIG. 4)) was “Cell-cell contact lines disappeared”. The “movement of HUVEC cells in time-lapse videos (20× objective)” value in data set [1] (100 nM, versus DMSO treated cells) was “significantly reduced movement”. Moreover, the pIC50 in data set [1] (Homo sapiens, HUVEC, estimated from similar covered areas at 100 nM and 1 μM (FIG. 2), read-out: IC50 of the inhibition of HUVEC migration) was above 7.00; with HUVEC it was around 6.10. In data set [1] (after 24 hr treatment with 100 nM and 1 μM), the HUVEC cell shrinkage result is on record as “began to shrink”. For the same compound, the “cell death of HUVEC during migration assay” value in data set [1] (at 24 hr (FIG. 3)) was “no significant cell death”. Also, the HUVEC cell survival entry in data set [1] (at 48 hr, 1 μM) is “majority of cells were alive”. The “VE-cadherin staining in cell-cell junction regions” value in data set [2] (10 nM, compared to DMSO) is given as “extremely strong”. Besides, in data set [2] (100 nM), the VE-cadherin staining areas entry was “further increase the VE-cadherin staining areas”. In addition, the VE-cadherin molecules distribution result in data set [2] (1 μM) is “Aggregations of VE-cadherin molecules appeared”.

Source of the values: patent US8188075B2, “Triazole compounds that modulate HSP90 activity” (Synta Pharmaceuticals Corp., priority 2006, dated 2012).
